According to patent publication US20040175401A1, “Enhanced parmacokinetic profile of hydrophobic substances” (priority 2001, published 2004):
Where two headings read alike, the source gives them in different places. Marks after values point to notes of the source that are not given here.

Tests used:
[1] = starred values; log P estimated using SRC program
[2] = n-octanol/water partition coefficient LogPoct calculated from solubility data; conditions: calculated as logPoct = (0.99 - logSw)/1.34
Text: where logSw is the molar solubility and logPoct is the water-oil partition coefficient. Using this equation, values for logPoct can be calculated from solubility data.

[3] = molar aqueous solubility, log value; cited from earlier work

SMILES | LogSw [1] | LogPoct [2] | LogSw [3]
CCC(=O)NS(=O)(=O)c1ccc(-c2c(-c3ccccc3)noc2C)cc1 [Parecoxib] | −3.16* moles/L |  | 
CCC[C@@]1(CCc2ccccc2)CC(O)=C([C@H](CC)c2cccc(NS(=O)(=O)c3ccc(C(F)(F)F)cn3)c2)C(=O)O1 [N-(3{(1R)-1-[(6R)-4-hydroxy-2-oxo-6-phenethyl-6-propyl-5,6-dihydro-2H-pyran-3-yl]propyl}phenyl)-5-(trifluoromethyl)-2-pyridinesulfonamide] | −8.00* moles/L |  | 
CC(C)Nc1cccnc1N1CCN(C(=O)c2cc3cc(NS(C)(=O)=O)ccc3[nH]2)CC1 [delavirdine] |  | 4.29 | −4.76 moles/L
CC1(C)C2CC3OC3(C)C1C2 (centres unmarked) [pinene_oxide] |  | 2.67 | −2.59 moles/L
S=c1cc(-c2ccccc2)ss1 [5-phenyldithiolethione] |  | 4.95 | −5.64 moles/L
O=C1NC(=O)C2(CCCCCCCCCCC2)C(=O)N1 [5,5-(CH2)11-barbituric acid] |  | 5.07 | −5.80 moles/L
O=C1Nc2ccc(Cl)cc2[C@@](C#CC2CC2)(C(F)(F)F)O1 [Efavirenz] |  | 4.15 | −4.57 moles/L
Cc1onc(-c2ccccc2)c1-c1ccc(S(N)(=O)=O)cc1 [Valdecoxib] | −2.59* moles/L |  | 
CC(C)CN(C[C@@H](O)[C@H](Cc1ccccc1)NC(=O)O[C@H]1CCOC1)S(=O)(=O)c1ccc(N)cc1 [Amprenavir] |  | 3.72 | −4.00 moles/L
CCC1(C)C(=O)NC(=O)NC1=O [5-Me-5-ethylbarbituric acid] |  | 1.66 | −1.23 moles/L
